# Measurements published in PMC4012458, “Action of Clathrodin and Analogues on Voltage-Gated Sodium Channels” (Marine Drugs, 2014).
# What was measured:
# NaV1.4 = target: T1, NaV1.4 (Rattus norvegicus, UniProt P15390); experiment: two-electrode voltage clamp in Xenopus oocytes, concentration-response; also QPatch patch clamp; format: cell-based
# T1 construct: gene Scn4a
# NaV1.5 = target: T2, NaV1.5 (Homo sapiens, UniProt Q14524); experiment: two-electrode voltage clamp in Xenopus oocytes, […] inhibition at […]; format: cell-based
# T2 construct: gene SCN5A
# T2 sequence (Q14524 whole entry): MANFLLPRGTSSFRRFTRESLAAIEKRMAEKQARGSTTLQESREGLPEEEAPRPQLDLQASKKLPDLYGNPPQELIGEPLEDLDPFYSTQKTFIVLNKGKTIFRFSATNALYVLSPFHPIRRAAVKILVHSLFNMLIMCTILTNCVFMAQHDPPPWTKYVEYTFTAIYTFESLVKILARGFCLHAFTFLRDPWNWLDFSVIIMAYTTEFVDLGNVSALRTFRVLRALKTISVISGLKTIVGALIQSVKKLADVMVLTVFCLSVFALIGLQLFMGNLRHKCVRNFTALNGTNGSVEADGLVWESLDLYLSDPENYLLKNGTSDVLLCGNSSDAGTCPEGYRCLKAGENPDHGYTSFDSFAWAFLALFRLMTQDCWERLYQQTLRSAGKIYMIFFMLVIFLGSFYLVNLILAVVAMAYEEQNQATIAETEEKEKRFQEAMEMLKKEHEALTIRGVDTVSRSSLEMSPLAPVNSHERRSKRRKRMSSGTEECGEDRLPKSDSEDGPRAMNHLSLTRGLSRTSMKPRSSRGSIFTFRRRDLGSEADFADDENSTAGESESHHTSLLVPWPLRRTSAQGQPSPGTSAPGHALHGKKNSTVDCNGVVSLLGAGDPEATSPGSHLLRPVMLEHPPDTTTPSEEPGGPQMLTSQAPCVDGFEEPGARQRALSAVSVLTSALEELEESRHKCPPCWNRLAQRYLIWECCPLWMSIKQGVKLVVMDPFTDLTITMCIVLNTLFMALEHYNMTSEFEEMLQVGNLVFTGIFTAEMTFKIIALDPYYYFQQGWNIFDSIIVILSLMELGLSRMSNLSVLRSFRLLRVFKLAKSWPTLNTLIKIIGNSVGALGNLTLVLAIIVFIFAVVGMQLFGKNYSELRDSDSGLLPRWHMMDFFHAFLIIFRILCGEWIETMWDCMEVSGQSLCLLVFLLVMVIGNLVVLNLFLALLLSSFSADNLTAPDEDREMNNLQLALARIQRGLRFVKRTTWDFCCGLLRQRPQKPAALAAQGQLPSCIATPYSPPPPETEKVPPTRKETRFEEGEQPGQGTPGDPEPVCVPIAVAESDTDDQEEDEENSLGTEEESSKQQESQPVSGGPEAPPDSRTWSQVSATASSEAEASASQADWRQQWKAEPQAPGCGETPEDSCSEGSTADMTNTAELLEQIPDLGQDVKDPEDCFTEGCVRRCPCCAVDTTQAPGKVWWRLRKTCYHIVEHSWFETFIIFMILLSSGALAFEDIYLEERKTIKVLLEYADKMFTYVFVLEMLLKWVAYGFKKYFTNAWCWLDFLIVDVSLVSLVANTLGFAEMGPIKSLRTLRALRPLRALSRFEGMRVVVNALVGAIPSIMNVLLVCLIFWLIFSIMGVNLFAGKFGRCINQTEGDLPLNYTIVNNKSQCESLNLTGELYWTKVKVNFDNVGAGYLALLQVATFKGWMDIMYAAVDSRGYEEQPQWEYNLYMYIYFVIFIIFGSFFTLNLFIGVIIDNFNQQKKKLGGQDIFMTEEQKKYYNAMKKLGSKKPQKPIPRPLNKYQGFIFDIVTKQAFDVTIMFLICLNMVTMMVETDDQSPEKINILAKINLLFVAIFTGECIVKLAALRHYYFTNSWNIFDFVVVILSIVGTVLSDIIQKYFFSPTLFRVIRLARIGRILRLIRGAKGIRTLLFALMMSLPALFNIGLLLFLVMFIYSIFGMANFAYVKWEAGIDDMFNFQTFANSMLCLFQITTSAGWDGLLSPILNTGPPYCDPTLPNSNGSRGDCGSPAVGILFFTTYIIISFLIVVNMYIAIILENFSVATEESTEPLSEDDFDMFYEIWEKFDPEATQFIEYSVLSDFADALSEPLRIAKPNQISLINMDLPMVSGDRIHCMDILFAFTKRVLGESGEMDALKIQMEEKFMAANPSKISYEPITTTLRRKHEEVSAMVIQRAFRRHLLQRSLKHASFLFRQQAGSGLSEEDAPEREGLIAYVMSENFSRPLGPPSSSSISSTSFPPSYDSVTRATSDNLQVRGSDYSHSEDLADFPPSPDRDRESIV
# T1 sequence (P15390 whole entry): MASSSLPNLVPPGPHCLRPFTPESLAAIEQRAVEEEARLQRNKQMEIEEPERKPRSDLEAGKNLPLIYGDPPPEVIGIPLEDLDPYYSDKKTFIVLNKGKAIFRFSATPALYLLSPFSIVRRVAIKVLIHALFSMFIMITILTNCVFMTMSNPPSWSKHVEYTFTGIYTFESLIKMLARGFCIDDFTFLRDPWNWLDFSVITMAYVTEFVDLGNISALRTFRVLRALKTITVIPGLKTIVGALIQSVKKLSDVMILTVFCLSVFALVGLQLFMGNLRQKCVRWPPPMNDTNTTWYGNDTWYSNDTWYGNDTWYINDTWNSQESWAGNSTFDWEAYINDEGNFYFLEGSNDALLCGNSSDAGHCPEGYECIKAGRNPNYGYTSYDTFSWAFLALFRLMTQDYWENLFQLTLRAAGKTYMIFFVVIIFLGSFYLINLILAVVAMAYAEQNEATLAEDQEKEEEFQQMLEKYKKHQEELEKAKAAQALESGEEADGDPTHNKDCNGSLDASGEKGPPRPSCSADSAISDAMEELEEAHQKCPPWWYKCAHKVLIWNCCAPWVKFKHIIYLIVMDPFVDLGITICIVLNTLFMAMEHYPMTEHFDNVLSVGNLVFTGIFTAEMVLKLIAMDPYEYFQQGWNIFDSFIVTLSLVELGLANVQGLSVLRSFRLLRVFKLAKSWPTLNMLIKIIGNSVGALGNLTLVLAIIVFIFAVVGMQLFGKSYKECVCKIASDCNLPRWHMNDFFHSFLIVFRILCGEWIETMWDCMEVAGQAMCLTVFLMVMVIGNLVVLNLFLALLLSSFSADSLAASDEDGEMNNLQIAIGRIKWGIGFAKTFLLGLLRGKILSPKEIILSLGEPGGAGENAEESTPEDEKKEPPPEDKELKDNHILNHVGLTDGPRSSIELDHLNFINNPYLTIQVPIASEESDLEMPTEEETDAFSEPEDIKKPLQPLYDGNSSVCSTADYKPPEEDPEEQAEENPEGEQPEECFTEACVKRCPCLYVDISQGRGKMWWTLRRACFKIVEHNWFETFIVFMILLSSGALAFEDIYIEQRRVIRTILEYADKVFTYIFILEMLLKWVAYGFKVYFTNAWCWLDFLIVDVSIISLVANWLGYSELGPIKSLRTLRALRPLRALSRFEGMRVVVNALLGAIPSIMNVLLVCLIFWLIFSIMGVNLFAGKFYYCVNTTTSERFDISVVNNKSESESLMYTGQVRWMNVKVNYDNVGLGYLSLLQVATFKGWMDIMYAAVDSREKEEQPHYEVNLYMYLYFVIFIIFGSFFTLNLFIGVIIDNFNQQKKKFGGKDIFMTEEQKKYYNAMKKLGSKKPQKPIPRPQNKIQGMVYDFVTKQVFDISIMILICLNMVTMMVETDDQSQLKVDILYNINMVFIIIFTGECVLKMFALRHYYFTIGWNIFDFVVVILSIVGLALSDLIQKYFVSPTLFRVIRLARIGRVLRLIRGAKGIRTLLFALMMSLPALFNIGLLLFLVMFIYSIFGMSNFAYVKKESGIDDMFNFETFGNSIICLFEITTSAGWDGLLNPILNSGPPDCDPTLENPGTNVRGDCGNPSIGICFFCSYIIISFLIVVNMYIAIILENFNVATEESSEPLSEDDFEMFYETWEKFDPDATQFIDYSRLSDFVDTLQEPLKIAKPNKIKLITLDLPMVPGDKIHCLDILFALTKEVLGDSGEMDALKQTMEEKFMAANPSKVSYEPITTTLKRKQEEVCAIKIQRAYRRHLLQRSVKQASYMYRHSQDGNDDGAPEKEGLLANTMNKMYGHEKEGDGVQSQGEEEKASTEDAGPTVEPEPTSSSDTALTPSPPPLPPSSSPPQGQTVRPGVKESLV
compound,measurement,setting,value
"Nc1nc(-c2cccc(NC(=O)c3c[nH]c4ccccc34)c2)c[nH]1 [compound 9, Compound 9]",IC50,NaV1.4,3.5 ± 0.9 µM
same,inhibition at 1 µM,NaV1.5,19.6 ± 1.3%
